test system: HCV pseudoparticles (genotype 1a HCV E1 and E2 envelope, H77C isolate); assay: microbe, parasite or virus in culture; assay type: cell-based; conditions: Hepatitis C virus, Huh-7, 48 h, HCV pseudoparticle infection of Huh7 cells, luciferase 2 days after infection; average of duplicates

Row | SMILES | EC50
1 | O=C(NCC[C@H](NC(=O)c1ccc(Nc2nc(NC3(c4ccc(Cl)cc4)CC3)nc(OCC(F)(F)F)n2)cc1)C(=O)O)C(=O)NCC1CCCOC1 (stereo partly drawn) [Compound 1208] | 0.21 nM
2 | CC1(C)[C@H]2C[C@@]1(C)CCC2CNC(=O)C(=O)NCC[C@H](NC(=O)c1ccc(Nc2nc(NC3(c4ccc(Cl)cc4)CC3)nc(OCC(F)(F)F)n2)cc1)C(=O)O (stereo partly drawn) [Compound 1211] | 0.13 nM
3 | C[C@H](NC(=O)C(=O)NCC[C@H](NC(=O)c1ccc(Nc2nc(NC3(c4ccc(Cl)cc4)CC3)nc(OCC(F)(F)F)n2)cc1)C(=O)O)C1CCCCC1 [Compound 1212] | 0.07 nM
4 | COC(=O)[C@H](CCNC(=O)C(=O)N(C)c1ccccc1)NC(=O)c1ccc(Nc2nc(NC3(c4ccc(Cl)cc4)CC3)nc(OCC(F)(F)F)n2)cc1 [Compound 1235] | 0.53 nM
5 | COC(=O)[C@H](CCNC(=O)C(=O)Nc1ccccn1)NC(=O)c1ccc(Nc2nc(NC3(c4ccc(Cl)cc4)CC3)nc(OCC(F)(F)F)n2)cc1 [Compound 1237] | 0.77 nM
6 | COC(=O)[C@H](CNC(=O)C(=O)Nc1ccnc(OC)c1)NC(=O)c1ccc(Nc2nc(NC3(c4ccc(Cl)cc4)CC3)nc(OCC(F)(F)F)n2)cc1 [Compound 1241] | 0.99 nM

same assay, conditions: Hepatitis C virus, Huh-7, 48 h, read-out: Activity (EC50 class), HCV pseudoparticle infection of Huh7 cells, luciferase 2 days after infection; EC50 expressed as class A/B

Row | SMILES | EC50
7 | CC(C)(C)CNC(=O)C(=O)NCC[C@H](NC(=O)c1ccc(Nc2nc(NC3(c4ccc(Cl)cc4)CC3)nc(OCC(F)(F)F)n2)cc1)C(=O)O [Compound 1205] | 0.01 to 10 nM
8 | O=C(NCC[C@H](NC(=O)c1ccc(Nc2nc(NC3(c4ccc(Cl)cc4)CC3)nc(OCC(F)(F)F)n2)cc1)C(=O)O)C(=O)NCC1CC1 [Compound 1206] | 0.01 to 10 nM
9 | O=C(NCC[C@H](NC(=O)c1ccc(Nc2nc(NC3(c4ccc(Cl)cc4)CC3)nc(OCC(F)(F)F)n2)cc1)C(=O)O)C(=O)NCC1CCCCCC1 [Compound 1207] | 0.01 to 10 nM
10 | O=C(NCC[C@H](NC(=O)c1ccc(Nc2nc(NC3(c4ccc(Cl)cc4)CC3)nc(OCC(F)(F)F)n2)cc1)C(=O)O)C(=O)NCC1CCCOC1 (stereo partly drawn) [Compound 1208] | 0.01 to 10 nM
11 | CCC1(CC)CC1CNC(=O)C(=O)NCC[C@H](NC(=O)c1ccc(Nc2nc(NC3(c4ccc(Cl)cc4)CC3)nc(OCC(F)(F)F)n2)cc1)C(=O)O (stereo partly drawn) [Compound 1209] | 0.01 to 10 nM
12 | CC(C)(C)OC(=O)NC1CCC(CNC(=O)C(=O)NCC[C@H](NC(=O)c2ccc(Nc3nc(NC4(c5ccc(Cl)cc5)CC4)nc(OCC(F)(F)F)n3)cc2)C(=O)O)CC1 (stereo partly drawn) [Compound 1210] | 0.01 to 10 nM
13 | CC1(C)[C@H]2C[C@@]1(C)CCC2CNC(=O)C(=O)NCC[C@H](NC(=O)c1ccc(Nc2nc(NC3(c4ccc(Cl)cc4)CC3)nc(OCC(F)(F)F)n2)cc1)C(=O)O (stereo partly drawn) [Compound 1211] | 0.01 to 10 nM
14 | C[C@H](NC(=O)C(=O)NCC[C@H](NC(=O)c1ccc(Nc2nc(NC3(c4ccc(Cl)cc4)CC3)nc(OCC(F)(F)F)n2)cc1)C(=O)O)C1CCCCC1 [Compound 1212] | 0.01 to 10 nM
15 | CC(C)(C)OC(=O)N1CCC(CNC(=O)C(=O)NCC[C@H](NC(=O)c2ccc(Nc3nc(NC4(c5ccc(Cl)cc5)CC4)nc(OCC(F)(F)F)n3)cc2)C(=O)O)CC1 [Compound 1213] | 0.01 to 10 nM
16 | O=C(NCC[C@H](NC(=O)c1ccc(Nc2nc(NC3(c4ccc(Cl)cc4)CC3)nc(OCC(F)(F)F)n2)cc1)C(=O)O)C(=O)NCC1CCOCC1 [Compound 1215] | 0.01 to 10 nM
17 | COC(=O)[C@H](CCNC(=O)C(=O)Nc1cccnc1OC)NC(=O)c1ccc(Nc2nc(NC3(c4ccc(Cl)cc4)CC3)nc(OCC(F)(F)F)n2)cc1 [Compound 1216] | 0.01 to 10 nM
18 | COC(=O)[C@H](CCNC(=O)C(=O)Nc1ccnc(OC)c1)NC(=O)c1ccc(Nc2nc(NC3(c4ccc(Cl)cc4)CC3)nc(OCC(F)(F)F)n2)cc1 [Compound 1217] | 0.01 to 10 nM
19 | COC(=O)[C@H](CCNC(=O)C(=O)Nc1ccc(OC)nc1)NC(=O)c1ccc(Nc2nc(NC3(c4ccc(Cl)cc4)CC3)nc(OCC(F)(F)F)n2)cc1 [Compound 1218] | 0.01 to 10 nM
20 | COC(=O)[C@H](CCNC(=O)C(=O)Nn1cnnc1)NC(=O)c1ccc(Nc2nc(NC3(c4ccc(Cl)cc4)CC3)nc(OCC(F)(F)F)n2)cc1 [Compound 1219] | 10 to 1000 nM
21 | COC(=O)[C@H](CCNC(=O)C(=O)NNc1ccccc1)NC(=O)c1ccc(Nc2nc(NC3(c4ccc(Cl)cc4)CC3)nc(OCC(F)(F)F)n2)cc1 [Compound 1220] | 0.01 to 10 nM
22 | COC(=O)[C@H](CCNC(=O)C(=O)Nc1ccn(C)n1)NC(=O)c1ccc(Nc2nc(NC3(c4ccc(Cl)cc4)CC3)nc(OCC(F)(F)F)n2)cc1 [Compound 1221] | 0.01 to 10 nM
23 | COC(=O)[C@H](CCNC(=O)C(=O)Nc1nccn1C)NC(=O)c1ccc(Nc2nc(NC3(c4ccc(Cl)cc4)CC3)nc(OCC(F)(F)F)n2)cc1 [Compound 1222] | 0.01 to 10 nM
24 | COC(=O)[C@H](CCNC(=O)C(=O)Nc1cc[nH]n1)NC(=O)c1ccc(Nc2nc(NC3(c4ccc(Cl)cc4)CC3)nc(OCC(F)(F)F)n2)cc1 [Compound 1223] | 0.01 to 10 nM

Row | SMILES | EC50
25 | COC(=O)[C@H](CCNC(=O)C(=O)Nc1cn[nH]c1)NC(=O)c1ccc(Nc2nc(NC3(c4ccc(Cl)cc4)CC3)nc(OCC(F)(F)F)n2)cc1 [Compound 1224] | 0.01 to 10 nM
26 | COC(=O)[C@H](CCNC(=O)C(=O)Nc1cncn1C)NC(=O)c1ccc(Nc2nc(NC3(c4ccc(Cl)cc4)CC3)nc(OCC(F)(F)F)n2)cc1 [Compound 1225] | 0.01 to 10 nM
27 | COC(=O)[C@H](CCNC(=O)C(=O)Nc1cnn(C)c1)NC(=O)c1ccc(Nc2nc(NC3(c4ccc(Cl)cc4)CC3)nc(OCC(F)(F)F)n2)cc1 [Compound 1226] | 0.01 to 10 nM
28 | COC(=O)[C@H](CCNC(=O)C(=O)Nc1cccc(F)c1)NC(=O)c1ccc(Nc2nc(NC3(c4ccc(Cl)cc4)CC3)nc(OCC(F)(F)F)n2)cc1 [Compound 1227] | 0.01 to 10 nM
29 | COC(=O)[C@H](CCNC(=O)C(=O)Nc1cccc(OC)c1)NC(=O)c1ccc(Nc2nc(NC3(c4ccc(Cl)cc4)CC3)nc(OCC(F)(F)F)n2)cc1 [Compound 1228] | 0.01 to 10 nM
30 | COC(=O)[C@H](CCNC(=O)C(=O)Nc1cccc(C(F)(F)F)c1)NC(=O)c1ccc(Nc2nc(NC3(c4ccc(Cl)cc4)CC3)nc(OCC(F)(F)F)n2)cc1 [Compound 1229] | 0.01 to 10 nM
31 | COC(=O)[C@H](CCNC(=O)C(=O)Nc1ccc(F)cc1)NC(=O)c1ccc(Nc2nc(NC3(c4ccc(Cl)cc4)CC3)nc(OCC(F)(F)F)n2)cc1 [Compound 1230] | 0.01 to 10 nM
32 | COC(=O)[C@H](CCNC(=O)C(=O)Nc1ccccc1F)NC(=O)c1ccc(Nc2nc(NC3(c4ccc(Cl)cc4)CC3)nc(OCC(F)(F)F)n2)cc1 [Compound 1231] | 0.01 to 10 nM
33 | COC(=O)[C@H](CCNC(=O)C(=O)Nc1ccc(OC)cc1)NC(=O)c1ccc(Nc2nc(NC3(c4ccc(Cl)cc4)CC3)nc(OCC(F)(F)F)n2)cc1 [Compound 1232] | 0.01 to 10 nM
34 | COC(=O)[C@H](CCNC(=O)C(=O)Nc1ccc(C(F)(F)F)cc1)NC(=O)c1ccc(Nc2nc(NC3(c4ccc(Cl)cc4)CC3)nc(OCC(F)(F)F)n2)cc1 [Compound 1233] | 0.01 to 10 nM
35 | COC(=O)[C@H](CCNC(=O)C(=O)Nc1ccccc1OC)NC(=O)c1ccc(Nc2nc(NC3(c4ccc(Cl)cc4)CC3)nc(OCC(F)(F)F)n2)cc1 [Compound 1234] | 0.01 to 10 nM
36 | COC(=O)[C@H](CCNC(=O)C(=O)N(C)c1ccccc1)NC(=O)c1ccc(Nc2nc(NC3(c4ccc(Cl)cc4)CC3)nc(OCC(F)(F)F)n2)cc1 [Compound 1235] | 0.01 to 10 nM
37 | COC(=O)[C@H](CCNC(=O)C(=O)Nc1ccncc1)NC(=O)c1ccc(Nc2nc(NC3(c4ccc(Cl)cc4)CC3)nc(OCC(F)(F)F)n2)cc1 [Compound 1236] | 0.01 to 10 nM
38 | COC(=O)[C@H](CCNC(=O)C(=O)Nc1ccccn1)NC(=O)c1ccc(Nc2nc(NC3(c4ccc(Cl)cc4)CC3)nc(OCC(F)(F)F)n2)cc1 [Compound 1237] | 0.01 to 10 nM
39 | COC(=O)[C@H](CCNC(=O)C(=O)Nc1cccnc1)NC(=O)c1ccc(Nc2nc(NC3(c4ccc(Cl)cc4)CC3)nc(OCC(F)(F)F)n2)cc1 [Compound 1238] | 0.01 to 10 nM
40 | COC(=O)[C@H](CCNC(=O)C(=O)Nc1ccnn1C)NC(=O)c1ccc(Nc2nc(NC3(c4ccc(Cl)cc4)CC3)nc(OCC(F)(F)F)n2)cc1 [Compound 1239] | 0.01 to 10 nM
41 | COC(=O)[C@H](CNC(=O)C(=O)Nc1cccnc1OC)NC(=O)c1ccc(Nc2nc(NC3(c4ccc(Cl)cc4)CC3)nc(OCC(F)(F)F)n2)cc1 [Compound 1240] | 0.01 to 10 nM
42 | COC(=O)[C@H](CNC(=O)C(=O)Nc1ccnc(OC)c1)NC(=O)c1ccc(Nc2nc(NC3(c4ccc(Cl)cc4)CC3)nc(OCC(F)(F)F)n2)cc1 [Compound 1241] | 0.01 to 10 nM
